The text below walks through data of ChEMBL document CHEMBL1121497, “Studies on cardiovascular agents. 6. Synthesis and coronary vasodilating and antihypertensive activities of 1,2,4-triazolo[1,5-a]pyrimidines fused to heterocyclic systems” (1980).

Test [1] is filed under the species Cavia porcellus. Kind of test: Integrated vasodilating potency (IVP) (the product of compound-induced maximum percent decrease in the perfusion pressure and the duration of the effect in minutes at 100 ug (ia)). It is filed as functional.
For test [2], the system named is Rattus norvegicus. Kind of test: Hypotensive index (HI) measured as the area under the time-hypotensive response curve for 6-h period at 30 mg/kg, po. Format: functional.

As for `Cc1nc2ncnn2c2c1C(C)CN2C(C)(C)C` (centres undefined), in test [1], the IVP was found to be 333. In test [2], this compound came in with an HI of 20.

With `CC(C)(C)N1CCc2c(C3CC3)nc3ncnn3c21`, the IVP in test [1] is recorded as 125. In test [2], this compound returned an HI of 20. The like results for `Cc1nc2ncnn2c2c1CCN2C(C)C(O)c1ccccc1` (centres undefined) were, in that order, 8 and 0. The like results for `Cc1nc2ncnn2c2c1ccn2C(C)(C)C` were, in that order, 246 and 160.

Compound `COc1ccc(CN2CCc3c(C)nc4ncnn4c32)cc1OC` yielded an IVP in test [1] of 174. The compound also yielded an HI in test [2] of 55. The like results for `CCCCN(CCCC)CCCN1CCc2c(C)nc3ncnn3c21` were, in that order, 0 and 40. Compound `Cc1nc2ncnn2c2c1N(C)CCN2C` returned an IVP in test [1] of 45. For the same compound, the HI in test [2] is 25.

On to `COc1ccc(-c2nc3nc(C)c4c(n3n2)N(C)CC4)cc1`, for which the IVP in test [1] amounted to 0. In test [2], this compound showed an HI of 0. Turning to `Cc1nc2ncnn2c2c1CCN2Cc1ccccc1`, in test [1], the IVP came to 46. For the same compound, the HI in test [2] is reported as 170. In test [1], `Cc1nc2ncnn2c2c1CCN2Cc1ccccc1F` returned an IVP of 351. Besides, the HI in test [2] is listed as 5. Take `COc1cc(C(=O)OCCN2CCc3c(C)nc4ncnn4c32)cc(OC)c1OC`: the IVP in test [1] came to 21. Besides, in test [2], the HI came to 0.

The compound `Cc1nc2ncnn2c2c1CCN2CCCN1CCOCC1` gave an IVP in test [1] of 3. The HI in test [2] came out at 40. Taken in the same sequence, the figures for `COc1ccc(Cn2ccc3c(C)nc4ncnn4c32)cc1` were 55 and 0. The like results for `COc1cc(-c2nc3nc(C)c4c(n3n2)N(C(C)(C)C)CC4)cc(OC)c1OC` were, in that order, 222 and 50. With `Cc1nc2ncnn2c2c1CCS2`, the IVP in test [1] was found to be 0. This compound also displayed an HI in test [2] of 10.

In test [1], `CCN(CC)CCN1CCc2c(C)nc3ncnn3c21` gave an IVP of 1. For the same compound, the HI in test [2] worked out at 0.

Compound `Cc1nc2ncnn2c2c1CCN2CCCN(C)C` came in with an IVP in test [1] of 0. Further, in test [2], the HI was 10. `Cc1nc2ncnn2c2c1CCN2C(C)C` returned an IVP in test [1] of 24. Moreover, the HI in test [2] was 0. Taken in the same sequence, the figures for `COc1ccc(CN2c3c(c(C)nc4ncnn34)CC2C)cc1` (centres undefined) were 82 and 11. The like results for `COc1ccc(CN2CCc3c(C)nc4ncnn4c32)cc1` were, in that order, 55 and 13.

In turn, `Cc1cn(C(C)(C)C)c2c1c(C)nc1ncnn12` displayed an IVP in test [1] of 330. In test [2], this compound had an HI of 20.

For the compound `Cc1nc2ncnn2c2c1CCN2Cc1ccc(Cl)cc1`, in test [1], the IVP amounted to 250. The compound further showed an HI in test [2] of 145.

`CCCCCCCCCCN1CCc2c(C)nc3ncnn3c21` registered an HI in test [2] of 7. In test [1], `CCC1Cc2c(C)nc3ncnn3c2N1Cc1ccccc1F` (centres undefined) gave an IVP of 67. This compound returned an HI in test [2] of 0.

In test [2], `CNC1(C)C2CCC(C2)C1(C)C` (centres undefined) [MECAMYLAMINE] gave an HI of 110. Consider `COc1ccc(CCN2CCc3c(C)nc4ncnn4c32)cc1OC`, for which, in test [1], the IVP was determined as 11. The compound also yielded an HI in test [2] of 15. `CCCCCCN1CCc2c(C)nc3ncnn3c21`: in test [1], the IVP came out at 14. The same compound returned an HI in test [2] of 10. In the case of `CCN1CCc2c(C)nc3ncnn3c21`, the IVP in test [1] is given as 12. This compound showed an HI in test [2] of 10. The like results for `CCCN1CCN(CCCN2CCc3c(C)nc4ncnn4c32)CC1` were, in that order, 3 and 0. Taken in the same sequence, the figures for `COc1cc(CN2CCc3c(C)nc4ncnn4c32)cc(OC)c1OC` were 109 and 15. Taken in the same sequence, the figures for `CCCCN1c2c(c(C)nc3ncnn23)CC1CC` (centres undefined) were 120 and 10.

In turn, `Cc1nc2nc(C)c3c(n2n1)N(C(C)(C)C)CC3` registered an IVP in test [1] of 18. In test [2], the HI was 35. Taken in the same sequence, the figures for `Cc1nc2nc(C)c3c(n2n1)N(Cc1ccccc1Cl)CC3` were 15 and 18. The like results for `Cc1nc2ncnn2c2c1CCN2CC(C)C` were, in that order, 107 and 60. Taken in the same sequence, the figures for `CCC(C)N1CCc2c(C)nc3ncnn3c21` (centres undefined) were 5 and 100. `Cc1nc2ncnn2c2c1CCCO2`: the IVP in test [1] is reported as 0.

In turn, `Cc1nc2ncnn2c2c1CC(C)N2C(C)(C)C` (centres undefined) gave an IVP in test [1] of 47. In turn, `Cc1nc2ncnn2c2c1CCN2CCN1CCCC1` showed an IVP in test [1] of 2. In test [2], this compound yielded an HI of 0.

`Cc1nc2ncnn2c2c1CCN2`: in test [1], the IVP is given as 6. The same compound showed an HI in test [2] of 55. Compound `Cc1nc2ncnn2c2c1CC(C)N2C(C)C` (centres undefined) came in with an IVP in test [1] of 10. The compound further returned an HI in test [2] of 0. Taken in the same sequence, the figures for `C=CCN1CCc2c(C)nc3ncnn3c21` were 56 and 70.

In test [1], `Cc1nc2ncnn2c2c1CCN2c1ccc(S(N)(=O)=O)cc1` returned an IVP of 14. This compound also yielded an HI in test [2] of 0. `CC(C)N1CCc2c(C3CC3)nc3ncnn3c21`: the IVP in test [1] turned out to be 45. Moreover, in test [2], the HI is listed as 5. The like results for `Cc1nc2ncnn2c2c1CCN2c1ccccc1` were, in that order, 72 and 15.

As to `Cc1nc2ncnn2c2c1CCN2CCO`, in test [1], the IVP is recorded as 12. Further, in test [2], the HI was 0. Taken in the same sequence, the figures for `CCCCN1c2c(c(C)nc3ncnn23)CC1C` (centres undefined) were 50 and 45. The like results for `Cc1nc2ncnn2c2[nH]ccc12` were, in that order, 45 and 60. The like results for `CCC1Cc2c(C)nc3ncnn3c2N1C(C)(C)C` (centres undefined) were, in that order, 227 and 12. `Cc1nc2ncnn2c2c1CC(C)N2Cc1ccccc1F` (centres undefined): the IVP in test [1] came out at 64. In addition, in test [2], the HI came out at 5. Taken in the same sequence, the figures for `Cc1nc2ncnn2c2c1CCN2CCCOC(=O)c1cccnc1` were 24 and 30. The like results for `Cc1nc2ncnn2c2c1NCCN2C` were, in that order, 0 and 5.

The compound `Cc1nc2ncnn2c2c1ccn2Cc1ccccc1Cl` yielded an IVP in test [1] of 22. In test [2], this compound returned an HI of 12. For the compound `CCCCCCCCCCCCN1CCc2c(C)nc3ncnn3c21`, the HI in test [2] is 10.

`Cc1nc2nc(C)c3c(n2n1)N(CCCN1CCCC1)CC3` showed an IVP in test [1] of 0. Also, in test [2], the HI stood at 10.

In test [1], `Cc1nc2ncnn2c2c1CCN2CCCN1CCCC1` yielded an IVP of 0. Moreover, in test [2], the HI turned out to be 75. Taken in the same sequence, the figures for `Cc1nc2ncnn2c2c1CCN2C(C)COc1ccccc1` (centres undefined) were 63 and 65. Taken in the same sequence, the figures for `CCC1Cc2c(C)nc3ncnn3c2N1C(C)C` (centres undefined) were 0 and 20. The like results for `Cc1nc2ncnn2c2c1CCN2CCOC(=O)c1cccnc1` were, in that order, 7 and 30. In the case of `Cc1nc2ncnn2c2c1CCN2C(C)(C)CC(C)(C)C`, the IVP in test [1] is 32.

Consider `Clc1ccccc1CN1CCc2c(C3CC3)nc3ncnn3c21`, for which the IVP in test [1] was 5.

Compound `N=C(N)NCCN1CCCCCCC1.N=C(N)NCCN1CCCCCCC1.O=S(=O)(O)O` [GUANETHIDINE SULFATE] returned an HI in test [2] of 195.
